Results taken from patent US20100267742A1, “COMBINATION TARGETED THERAPY FOR LUNG CANCER” (RUSH UNIVERSITY MEDICAL CENTER, priority 2009, published 2010).
Entries after “also recorded” stand apart in the source; their conditions may differ.

Assays:
Assay type in all cases: cell-based, human
[1] = test system: kinase and receptor phosphorylation in Calu3 cells; assay: Western blot with anti-phospho antibodies on lysates of serum-starved cells; settings: for Akt (ser473) phosphorylation / EGFR (Y1068) phosphorylation: low doses alone versus combination
Experimental: (§1) Lysates were prepared for immunoprecipitation and Western blotting from serum-starved Calu3 and H1975 cell lines after incubation with kinase inhibitors, including enzastaurin for PKCβ, and SU11274 for c-met. Specific site directed anti-phospho-antibodies were used to probe Western blots to determine the effect of respective inhibitors on downstream kinase activation. Proliferation and cell viability assays were performed with 10,000 cells seeded into 96-well plates and incubated with inhibitors in serum-starved cultures for 72 hours. Cell viability was determined by the addition of Calcein-AM (calcein-acetoxymethyl ester, diacetate) for the final 2 hours and plates were read at 515 nm. Antibodies: Anti-EGFR, antiphospho-EGFR (Tyr845), anti-phospho-EGFR (Tyr1068), anti-phospho-Akt (Ser473), anti phospho-Erk1,2 (Thr202/Tyr204), anti-phospho-PKCα,β) were purchased from Cell Signaling. Cell cultures: Cells were serum starved for 18-24 hours prior to incubation with kinase inhibitors. Enzastaurin was added for a minimum of 3.5 hours of culture and SU11274 for at least one hour before preparation of lysates. Cell lysates: Media were removed from confluent monolayers of cells immediately before addition of lysis buffer (1 μg/ml aprotinin, 1 μg/ml leupeptin, 200 μM sodium vanadate (NaVO4), 0.1% NP-40, […], 20 mM EDTA, 1 mM PMSF in 50 mM Tris-HCl (pH 7.5). Cells were harvested and sonicated in lysis buffer. After 15 minutes on ice, lysates were microcentrifuged for 20 minutes. Supernatants were removed and protein concentrations therein determined spectrophotometrically with protein detection reagent. Western blots: 10-30 μg of lysate were mixed with loading buffer and boiled before loading into 7.5% Tris-HCl pre-cast SDS-PAGE gels for electrophoresis in SDS-glycine buffer for 90 minutes. Separated proteins were transferred from the gel to Hybond ECL nitrocellulose membrane using a Trans-Blot SD semi-dry transfer cell apparatus. The transfer ran at 20 volts for 35-40 minutes. Nitrocellulose membranes were washed in 1×Tris Buffered Saline-0.1% Tween 20 (TBS-T) then blocked with 5% BSA or 5% milk in TBS-T on rotator for one hour at room temperature or overnight at 4° C. 0.2% Sodium Azide (NaN3) was added to all blocking and primary antibody solutions. Nitrocellulose membranes were probed with 1:1000 or 1:2000 primary antibody.

H1975 cells = assay: Cell proliferation / cell survival (viability) assay, Calcein-AM, 72 hours; settings: H1975 cell line, two EGFR mutations, alone or in combination
Experimental: (§2) Lysates were prepared for immunoprecipitation and Western blotting from serum-starved Calu3 and H1975 cell lines after incubation with kinase inhibitors, including enzastaurin for PKCβ, and SU11274 for c-met. Specific site directed anti-phospho-antibodies were used to probe Western blots to determine the effect of respective inhibitors on downstream kinase activation. Proliferation and cell viability assays were performed with 10,000 cells seeded into 96-well plates and incubated with inhibitors in serum-starved cultures for 72 hours. Cell viability was determined by the addition of Calcein-AM (calcein-acetoxymethyl ester, diacetate) for the final 2 hours and plates were read at 515 nm. Lung carcinoma cell lines: H1975 and Calu-3 were cultured following ATCC guidelines. Cells are removed from flasks with cell dissociation buffer in PBS.

Calu3 cells = assay: as above; settings: for cell survival / cell viability / sensitivity: Calu3, 72 hours in culture, serum-starved; for effect on cell number (3-factor ANOVA): Calu3 cell line, no EGFR mutation, alone or in combination
Experimental: as §2

[2] = test system: kinase phosphorylation in H1975 cells; assay: Western blot with anti-phospho antibodies on lysates of serum-starved cells
Experimental: as §1

SMILES | Akt (ser473) phosphorylation ([1]; Calu3) | EGFR (Y1068) phosphorylation ([1]; Calu3) | effect on cell number (3-factor ANOVA) (H1975 cells; listed as SU) | cell survival / cell viability / sensitivity (Calu3 cells) | effect on cell number (3-factor ANOVA) (Calu3 cells; listed as SU) | c-met phosphorylation ([1]; Calu3) | erbB3 phosphorylation ([1]; Calu3) | phosphorylation of PKC family members (pan-antibody against common phosphorylation sites) ([1]; Calu3) | sic phosphorylation ([1]; Calu3) | PKCαβ phosphorylation ([1]; Calu3, 3.5 hours in culture, serum-free medium) | sic phosphorylation ([2]; H1975) | PKCαβ phosphorylation ([2]; H1975, short-term incubation, serum-free medium) | effect on cell number (3-factor ANOVA) (H1975 cells; listed as Enza150) | effect on cell number (3-factor ANOVA) (H1975 cells; listed as Enzo150) | effect on cell number (3-factor ANOVA) (Calu3 cells; listed as Enzo 150)
Cc1[nH]c(/C=C2\C(=O)Nc3ccc(S(=O)(=O)N(C)c4cccc(Cl)c4)cc32)c(C)c1C(=O)N1CCN(C)CC1 [SU11274] | only minimal effects | only minimal effects | neither SU nor Enzo150 alone has a significant effect; also recorded: not significantly effective | significantly decreases the numbers of NSCLC cells | significant effect | – | – | – | – | – | – | – | – | – | –
Cn1cc(C2=C(c3cn(C4CCN(Cc5ccccn5)CC4)c4ccccc34)C(=O)NC2=O)c2ccccc21 [enzastaurin] | only minimal effects | only minimal effects | – | greatest sensitivity; also recorded: significantly decreases the numbers of NSCLC cells | – | decreased | decreased | does not inhibit phosphorylation of all PKC family members | substantially decreased | dose dependent inhibition; also recorded: inhibited | only a moderate effect | inhibited | not significantly effective | neither SU nor Enzo150 alone has a significant effect | significant effect
